Results on one compound are retold here after US20240299328A1, “COMPOSITIONS COMPRISING 15-HEPE AND METHODS OF TREATING AND/OR PREVENTING HEMATOLOGIC DISORDERS AND RELATED DISEASES” (Afimmune Limited, priority 2023, published 2024).

Assay [1] concerns α-SMA, TIMP-1, TGF-β and Collagen Type 1 mRNA. The assay can be described thus: UUO study: quantitative RT-PCR of kidney. The format is in vivo. Particulars: UUO mice kidney, normalized to 36B4, Day 14, mean ± SD. As for the experimental part:
Quantitative RT-PCR: Total ribonucleic acid (RNA) was extracted from kidney samples using RNAiso. One μg of RNA was reverse-transcribed using a reaction mixture containing […] (mM) of magnesium chloride (MgCl2), 40 U RNase inhibitor, 0.5 mM dNTP, 6.28 µM random hexamer, 5× first strand buffer, 10 mM dithiothreitol and 200 U MMLV-RT in a final volume of 20 μL. The reaction was carried out for 1 hour at 37° C., followed by 5 minutes at 99° C. Real-time PCR was performed using real-time PCR DICE and TB Green™ Premix Ex Taq™ II. To calculate the relative […] (mRNA) expression level, the expression of each gene (e.g., α-SMA, TIMP-1, TGF-β and Collagen Type 1) was normalized to that of reference gene 36B4 (gene symbol: Rplp0). Information regarding the PCR-primer sets and the plate layout are described in Tables 1 and 2.

Assay [2] has as its system humanized sickle cell (SS) mice exposed to H/R stress. The assay can be described thus: SCD (SS) mice exposed to H/R stress: lung, kidney and liver histopathology. Particulars: 1000 mg/Kg/d for 6 weeks. Format: in vivo. Also noted: key to Lung thrombi / Kidney thrombi / Liver thrombi: 0: no thrombi; +: presence of thrombi per field at the magnification ×250. As for the experimental part: Lung, kidney and liver histological analysis: Paraffin-embedded tissue blocks were cut into 2-3 μm sections and mounted on adhesion microscope glass slides for Hematoxylin-Eosin (H&E), and Perls' staining for iron content. The analysis was performed on four different fields at a magnification 200×. Tissue pathological analysis, inflammatory cell infiltrate, the presence of thrombi and iron deposition were carried out by blinded pathologists as previously described.
Score for inflammatory cell infiltrate. Quantification of inflammatory cell infiltrates was expressed as the mean of cells per field at magnification of X250, as resulting by the analysis of at least 10 different fields on each hematoxylin-eosin-stained whole lung section. Data are expressed as means±SEM; * p<0.05 compared to normoxia.
Thrombi: 0: no thrombi; +: presence of thrombi per field at the magnification ×250.
Score for inflammatory cell infiltrate. Quantification of inflammatory cell infiltration in renal cortex of kidney was determined in hematoxylin-eosin-stained sections using a 0 to 4 scale based on the percentage of cell infiltrates occupied area in each filed. 0 (no sign of infiltration); 1 (1-10% of the area with cell infiltration); 2 (11-25%); 3 (26-50%); 4 […]. The mean of 15 randomly selected field were analyzed at magnification ×400. Data are expressed as means±SEM; * p<0.05 compared to normoxia; ºp<0.05 compared to vehicle. Thrombi: 0: no thrombi; +: presence of thrombi presence of thrombi per field at the magnification ×250.
Score for inflammatory cell infiltrate. Quantification of inflammatory cell infiltrates was expressed as the mean of cells per field at magnification of ×250, as resulting by the analysis of at least 10 different fields on each hematoxylin-eosin-stained whole liver section. Data are expressed as means±SEM; * p<0.05 compared to normoxia.
Thrombi: 0: no thrombi; +: presence of thrombi presence of thrombi per field at the magnification ×250.
Statistical analysis: Non-parametric Pairwise Wilcoxon Rank Sum Tests was used.

In the case of `CC/C=C\C[C@H](O)/C=C/C=C\C/C=C\C/C=C\CCCC(=O)OCC` [DS102, 15(S)-hydroxy-(5Z,8Z,11Z,13E,17Z)-eicosapentaenoic acid ethyl ester], in assay [1] (50 mg/kg PO QD Day 0-13), the “Alpha-SMA mRNA expression level” value was found to be 3.74 ± 0.81, the “Collagen Type 1 mRNA expression level” value stood at 11.80 ± 1.78, the “TGF-β mRNA expression level” value is given as 4.31 ± 0.69 and the “TIMP-1 mRNA expression level” value came out at 138.30 ± 30.39. For the same compound, in assay [1] (500 mg/kg PO QD Day 0-13), the “Alpha-SMA mRNA expression level” value turned out to be 5.54 ± 1.54, the “Collagen Type 1 mRNA expression level” value is on record as 14.09 ± 2.88, the “TGF-β mRNA expression level” value stood at 5.37 ± 0.76 and the “TIMP-1 mRNA expression level” value was 124.80 ± 28.60. Also, in assay [2] (n = 4), the Kidney thrombi was determined as 0, the Liver thrombi was found to be 0 and the Lung thrombi is listed as 0. Further, in assay [2] (vs vehicle), the “liver iron accumulation (Perls' staining)” value is recorded as “significant reduction” and the “thrombi formation in liver” value is “significant reduction”.
